ChEMBL document CHEMBL1155852, “Novel inhibitors of anthrax edema factor” (Bioorg Med Chem, 2008)
Calls of active or inactive are those of the source. No cut-off for these calls is given here.

Key:
[1] = molecular target: T1, Calmodulin-sensitive adenylate cyclase (Bacillus anthracis, UniProt P40136); test: Inhibition of Bacillus anthracis edema factor-induced cAMP secretion in mouse RAW264.7 cells after 4 hrs by ELISA; assay type: cell-based
T1 sequence (P40136 whole entry): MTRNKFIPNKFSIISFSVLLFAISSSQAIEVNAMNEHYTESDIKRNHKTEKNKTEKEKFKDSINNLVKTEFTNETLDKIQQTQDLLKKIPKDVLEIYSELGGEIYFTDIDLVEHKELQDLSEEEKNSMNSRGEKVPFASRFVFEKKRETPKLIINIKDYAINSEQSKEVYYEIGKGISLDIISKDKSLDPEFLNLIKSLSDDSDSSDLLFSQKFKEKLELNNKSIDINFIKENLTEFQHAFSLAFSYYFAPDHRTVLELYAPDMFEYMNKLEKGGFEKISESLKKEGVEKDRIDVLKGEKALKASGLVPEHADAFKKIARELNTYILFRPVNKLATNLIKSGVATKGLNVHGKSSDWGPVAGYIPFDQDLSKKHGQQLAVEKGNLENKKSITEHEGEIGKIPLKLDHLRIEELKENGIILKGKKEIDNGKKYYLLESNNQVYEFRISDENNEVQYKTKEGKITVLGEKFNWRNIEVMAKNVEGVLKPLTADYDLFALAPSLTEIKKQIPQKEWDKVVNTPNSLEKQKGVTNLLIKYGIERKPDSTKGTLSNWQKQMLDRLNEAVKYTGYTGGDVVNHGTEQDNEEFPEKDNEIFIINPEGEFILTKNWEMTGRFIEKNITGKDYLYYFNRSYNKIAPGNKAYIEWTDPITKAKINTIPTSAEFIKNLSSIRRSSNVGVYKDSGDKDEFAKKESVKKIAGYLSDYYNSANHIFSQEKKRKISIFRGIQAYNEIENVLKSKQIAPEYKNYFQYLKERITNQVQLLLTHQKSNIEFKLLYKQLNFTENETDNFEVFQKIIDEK

[2] = molecular target: T2, Calmodulin-sensitive adenylate cyclase (Bacillus anthracis) (UniProt P40136); test: Inhibition of Bacillus anthracis edema factor-induced cAMP secretion in mouse RAW264.7 cells at 100 uM after 4 hrs by ELISA; assay type: cell-based
T2 sequence (whole entry): T1 sequence (P40136 whole entry)

Row | Structure (SMILES) | IC50 [1] [nM] | Activity [2]
1 | O=C(O)c1cccc(NC(=O)c2cccc3c2C(=O)c2ccccc2-3)c1 | 1830 | –
2 | CCCCC[C@H](O)/C=C/[C@H]1[C@H](n2ccnc2)CC(=O)[C@@H]1C/C=C\CCCC(=O)O | – | Active
3 | COc1cccc([C@H]2Nc3ccc(C(=O)O)cc3[C@@H]3C=CC[C@H]23)c1 | 1730 | –
4 | O=C(O)c1ccc(/N=C/c2c3ccccc3cc3ccccc23)cc1O | 8500 | –
